Laboratory results reported in patent US4283389A, “Novel antibiotic, BN-183B substance” (Meiji Seika Kaisha Ltd., priority 1978, dated 1981).

Columns and labels:
[1] = test system: Infectious hematopoietic necrosis (IHN) virus of rainbow trout; assay: antiviral activity by tissue culture test; type: cell-based; conditions: dose 0.5 mcg/m
[2] = test system: Herpes simplex virus type II 196; assay: anti-Herpes virus activity in mice; type: in vivo
[3] = test system: Lymphocytic leukemia P-388; assay: increase in life span of mice transplanted intraperitoneally with P-388; type: in vivo
Procedure: (§1) Lymphocytic leukemia P-388 or lymphoid leukemia L-1210 cells were transplanted intraperitoneally in an amount of 1×10^6 per mouse into CDF1 mice or BDF1 mice (about 5 weeks old, body weight 20±1 g), five in one group. Twenty-four hours after the transplantation of the tumor, a solution of the BN-183B substance in distilled water for injection was administered intraperitoneally to the mice once a day for three successive days. The percent increase in life span (i.e., ILS) was measured by comparing the average number of days of survival of each treated group with that of a control group to which the BN-183B substance was not administered.

[4] = test system: Gram-positive and Gram-negative bacteria; assay: growth inhibition of various microorganisms (overall); type: cell-based; conditions: overall result in words
Excerpt: (§2) Table 1 below summarizes the minimum growth inhibitory concentrations of the BN-183B substance on various microorganisms.
(§3) The culture media used were a nutrient agar (a product of Difco).

[5] = test system: Bacillus subtilis ATCC 6633; assay: paper disc method, inhibitory zone; type: cell-based; conditions: pure product, 20 to 500 mcg/ml
Procedure: In assaying the BN-183B substance, its anti-bacterial activity is utilized and Bacillus subtilis ATCC 6633 is used as an assaying strain. A mixture of 2% of mycin assay agar (a product of Kyoei Seiyaku K.K.) and 0.5% of bacto-agar (a product of Difco) is used as an assaying culture medium. When BN-183B substance (pure product) is assayed under the above conditions, the relation between the logarithm of the concentration within the range of 20 to 500 mcg/ml and the diameter of the inhibitory zone is linear, and an inhibitory zone having a diameter of 16 to 29 mm is given corresponding to the above concentration range (paper disc method).

[6] = LD50 in mice; type: in vivo
[7] = test system: Herpes virus type II 196; assay: antiviral activity by tissue culture test; type: cell-based; conditions: dose 3.9 mcg/m
[8] = test system: Staphylococcus faecalis ATCC8043; assay: minimum growth inhibitory concentration; type: cell-based; conditions: nutrient agar
Excerpt: as §2, §3

[9] = test system: Staphylococcus aureus Smith S-424; assay: minimum growth inhibitory concentration; type: cell-based; conditions: nutrient agar
Excerpt: as §2, §3

[10] = test system: Proteus vulgaris OX19; assay: minimum growth inhibitory concentration; type: cell-based; conditions: nutrient agar
Excerpt: as §2, §3

[11] = test system: Staphylococcus aureus 209P JC-1; assay: minimum growth inhibitory concentration; type: cell-based; conditions: nutrient agar
Excerpt: as §2, §3

[12] = test system: Escherichia coli NIHJ JC-2; assay: minimum growth inhibitory concentration; type: cell-based; conditions: nutrient agar
Excerpt: as §2, §3

[13] = test system: Staphylococcus epidermidis ATCC14990; assay: minimum growth inhibitory concentration; type: cell-based; conditions: nutrient agar
Excerpt: as §2, §3

[14] = test system: Escherichia coli K-12 IAM 1264; assay: minimum growth inhibitory concentration; type: cell-based; conditions: nutrient agar
Excerpt: as §2, §3

[15] = test system: lymphoid leukemia L-1210; assay: increase in life span of mice transplanted intraperitoneally with L-1210; type: in vivo
Procedure: as §1

[16] = test system: Newcastle disease virus Miyadera; type: cell-based; conditions: dose 3.9 mcg/m
[17] = solubility; type: physicochemical; conditions: hydrochloride
[18] = test system: Vaccinia virus Lister; type: cell-based; conditions: dose 3.9 mcg/m
[19] = test system: DNA-type and RNA-type viruses; assay: antiviral activity by tissue culture test (overall); type: cell-based; conditions: overall result in words
[20] = test system: Influenza virus A0/PR-8; type: cell-based; conditions: dose 3.9 mcg/m
[21] = test system: Infectious pancreatic necrosis (IPN) virus of rainbow trout; assay: antiviral activity by tissue culture test; type: cell-based; conditions: dose 0.5 mcg/m

C[C@H](N)C(=O)N[C@@H]1[C@H]2C(=C(O)C[C@@H](O)[C@@H]2O)C(=O)O[C@]1(C)C(Cl)Cl [BN-183B substance]
Difference of Log TCID50/ml from the Control [1]: 3.000 Log TCID50/ml
anti-Herpes virus effect compared with IUDR ([2]; 1.25 mg/kg BN-183B vs 100 mg/kg IUDR, i.p.): the same effect as in the group to which 100 mg/kg of IUDR was administered
ET50 (number of days of 50% survival) ([2]; 1.25 mg/kg i.p.): 8.38 days
Cumulative Mortality ([2]; 1.25 mg/kg i.p., day 5 from inoculation): 0%
Cumulative Mortality ([2]; 1.25 mg/kg i.p., day 6 from inoculation): 20%
Cumulative Mortality ([2]; 1.25 mg/kg i.p., day 7 from inoculation): 20%
Cumulative Mortality ([2]; 1.25 mg/kg i.p., day 8 from inoculation): 60%
Cumulative Mortality ([2]; 1.25 mg/kg i.p., day 9 from inoculation): 70%
Cumulative Mortality ([2]; 1.25 mg/kg i.p., day 10 from inoculation): 70%
Cumulative Mortality ([2]; 1.25 mg/kg i.p., day 11 from inoculation): 80%
Cumulative Mortality ([2]; 1.25 mg/kg i.p., day 12 from inoculation): 90%
Cumulative Mortality ([2]; 1.25 mg/kg i.p., day 13 from inoculation): 90%
Cumulative Mortality ([2]; 1.25 mg/kg i.p., day 14 from inoculation): 90%
ET50 (number of days of 50% survival) ([2]; 2.5 mg/kg i.p.): 7.65 days
Cumulative Mortality ([2]; 2.5 mg/kg i.p., day 5 from inoculation): 0%
Cumulative Mortality ([2]; 2.5 mg/kg i.p., day 6 from inoculation): 10%
Cumulative Mortality ([2]; 2.5 mg/kg i.p., day 7 from inoculation): 20%
Cumulative Mortality ([2]; 2.5 mg/kg i.p., day 8 from inoculation): 70%
Cumulative Mortality ([2]; 2.5 mg/kg i.p., day 9 from inoculation): 80%
Cumulative Mortality ([2]; 2.5 mg/kg i.p., day 10 from inoculation): 100%
Percent Increase in Life Span ([3]; P-388, 0.25 mg/kg i.p. once a day for three days): 32.1%
Percent Increase in Life Span ([3]; P-388, 0.5 mg/kg i.p. once a day for three days): 41.5%
Percent Increase in Life Span ([3]; P-388, 1 mg/kg i.p. once a day for three days): 54.7%
Percent Increase in Life Span ([3]; P-388, 2 mg/kg i.p. once a day for three days): 79.2%
Percent Increase in Life Span ([3]; P-388, 4 mg/kg i.p. once a day for three days): 66.0%
inhibitory activity on Gram-positive and Gram-negative bacteria [4]: strong inhibitory activity
diameter of the inhibitory zone [5]: 16 to 29 mm
LD50 ([6]; intramuscular): 4.1 mg/kg
LD50 ([6]; intraperitoneal): 4.3 mg/kg
LD50 ([6]; intravenous): 4.1 mg/kg
LD50 ([6]; oral): 50 mg/kg
LD50 ([6]; subcutaneous): 6.0 mg/kg
Difference of Log TCID50/ml from the Control [7]: 3.83 Log TCID50/ml
Minimum Growth Inhibitory Concentration [8]: 0.39 µg/mL
Minimum Growth Inhibitory Concentration [9]: 0.20 µg/mL
Minimum Growth Inhibitory Concentration [10]: 6.25 µg/mL
Minimum Growth Inhibitory Concentration [11]: 0.20 µg/mL
Minimum Growth Inhibitory Concentration [12]: 1.56 µg/mL
Minimum Growth Inhibitory Concentration [13]: 0.20 µg/mL
Minimum Growth Inhibitory Concentration [14]: 0.78 µg/mL
Percent Increase in Life Span ([15]; L-1210, 0.25 mg/kg i.p. once a day for three days): 10.8%
Percent Increase in Life Span ([15]; L-1210, 0.5 mg/kg i.p. once a day for three days): 35.1%
Percent Increase in Life Span ([15]; L-1210, 1 mg/kg i.p. once a day for three days): 32.4%
Percent Increase in Life Span ([15]; L-1210, 2 mg/kg i.p. once a day for three days): 45.9%
Percent Increase in Life Span ([15]; L-1210, 4 mg/kg i.p. once a day for three days): 59.5%
Difference of Log TCID50/ml from the Control [16]: 6.00 Log TCID50/ml
Solubility in acetone ([17]; acetone): scarcely soluble
Solubility in chloroform ([17]; chloroform): scarcely soluble
Solubility in ethyl acetate ([17]; ethyl acetate): scarcely soluble
Solubility in methanol ([17]; methanol): slightly soluble
Solubility in water ([17]; water): Very soluble
Difference of Log TCID50/ml from the Control [18]: < 3.00 Log TCID50/ml
activity against DNA-type and RNA-type viruses [19]: very strong activity
Difference of Log TCID50/ml from the Control [20]: 2.50
Difference of Log TCID50/ml from the Control [21]: 6.801 Log TCID50/ml

O=c1[nH]c(=O)n([C@H]2C[C@H](O)[C@@H](CO)O2)cc1I [IUDR, 5-iodo-2'-deoxyuridine, reference compound]
ET50 (number of days of 50% survival) ([2]; 100 mg/kg i.p.): 8.50 days
Cumulative Mortality ([2]; 100 mg/kg i.p., day 5 from inoculation): 0%
Cumulative Mortality ([2]; 100 mg/kg i.p., day 6 from inoculation): 0%
Cumulative Mortality ([2]; 100 mg/kg i.p., day 7 from inoculation): 30%
Cumulative Mortality ([2]; 100 mg/kg i.p., day 8 from inoculation): 40%
Cumulative Mortality ([2]; 100 mg/kg i.p., day 9 from inoculation): 60%
Cumulative Mortality ([2]; 100 mg/kg i.p., day 10 from inoculation): 70%
Cumulative Mortality ([2]; 100 mg/kg i.p., day 11 from inoculation): 70%
Cumulative Mortality ([2]; 100 mg/kg i.p., day 12 from inoculation): 70%
Cumulative Mortality ([2]; 100 mg/kg i.p., day 13 from inoculation): 70%
Cumulative Mortality ([2]; 100 mg/kg i.p., day 14 from inoculation): 70%
